{
  "source": "ChEMBL document CHEMBL6092212",
  "about": "“Discovery of novel substituted (Z)-N'-hydroxy-3-(3-phenylureido)benzimidamide derivatives as multifunctional molecules targeting pathological hallmarks of Alzheimer's disease” (Eur J Med Chem, 2024)",
  "key": {"Mus musculus [1]": {"system": "Mus musculus", "experiment": "Reversal of scopolamine-induced cognitive deficit Swiss albino mouse model assessed as decrease in escape latency at 1.5 mg/kg, ip measured for 5 days by Morris water maze test", "format": "functional, organism-based", "settings": "time 5.0 day"}, "[2]": {"experiment": "Antioxidant activity assessed as DPPH radical scavenging activity at 20 to 200 uM incubated for 30 mins by absorbance based analysis relative to control", "format": "functional", "settings": "dose 20-200 µM"}, "Mus musculus [3]": {"system": "Mus musculus", "experiment": "Neuroprotective activity against scopolamine-induced cognitive deficit Swiss albino mouse model assessed as increase in BDNF mRNA level at 1.5 mg/kg, ip measured after 14 days by RT-PCR analysis", "format": "functional, organism-based", "settings": "time 14.0 day"}, "Mus musculus [4]": {"system": "Mus musculus", "experiment": "Protection against scopolamine-associated dementia in Swiss albino mouse model assessed as increase in latency period at 1.5 mg/kg, ip measured after 14 days by Passive avoidance task method", "format": "functional, organism-based", "settings": "time 14.0 day"}, "Mus musculus [5]": {"system": "Mus musculus", "experiment": "Reversal of scopolamine-induced cognitive deficit Swiss albino mouse model assessed as increase in time in platform quadrant at 1.5 mg/kg, ip measured after 5 days by Morris water maze test", "format": "functional, organism-based", "settings": "time 5.0 day"}, "Mus musculus [6]": {"system": "Mus musculus", "experiment": "Neuroprotective activity against scopolamine-induced cognitive deficit Swiss albino mouse model assessed as increase in TRKB mRNA level at 1.5 mg/kg, ip measured after 14 days by RT-PCR analysis", "format": "functional, organism-based", "settings": "time 14.0 day"}, "Acetylcholinesterase": {"target": "Acetylcholinesterase (Homo sapiens, UniProt P22303)", "sequence (P22303 whole entry)": "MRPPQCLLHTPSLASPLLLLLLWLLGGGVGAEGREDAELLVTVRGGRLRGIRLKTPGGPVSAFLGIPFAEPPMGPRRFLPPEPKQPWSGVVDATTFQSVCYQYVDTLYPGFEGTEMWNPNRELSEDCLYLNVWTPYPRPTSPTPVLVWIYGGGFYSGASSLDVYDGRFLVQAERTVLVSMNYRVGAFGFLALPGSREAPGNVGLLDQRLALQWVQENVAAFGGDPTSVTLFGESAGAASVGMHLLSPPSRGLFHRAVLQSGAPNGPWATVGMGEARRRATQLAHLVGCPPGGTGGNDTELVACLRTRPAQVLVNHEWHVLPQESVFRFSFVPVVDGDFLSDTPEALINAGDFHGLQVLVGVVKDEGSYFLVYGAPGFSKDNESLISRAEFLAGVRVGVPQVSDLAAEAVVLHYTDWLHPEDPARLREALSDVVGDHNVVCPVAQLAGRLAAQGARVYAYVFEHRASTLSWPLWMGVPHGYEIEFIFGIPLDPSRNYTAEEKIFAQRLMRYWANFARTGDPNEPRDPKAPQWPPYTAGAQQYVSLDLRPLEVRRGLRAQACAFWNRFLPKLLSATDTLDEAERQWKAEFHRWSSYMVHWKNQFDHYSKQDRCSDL", "experiment": "Inhibition of AChE (unknown origin)"}, "Cholinesterase": {"target": "Cholinesterase (Homo sapiens, UniProt P06276)", "sequence (P06276 whole entry)": "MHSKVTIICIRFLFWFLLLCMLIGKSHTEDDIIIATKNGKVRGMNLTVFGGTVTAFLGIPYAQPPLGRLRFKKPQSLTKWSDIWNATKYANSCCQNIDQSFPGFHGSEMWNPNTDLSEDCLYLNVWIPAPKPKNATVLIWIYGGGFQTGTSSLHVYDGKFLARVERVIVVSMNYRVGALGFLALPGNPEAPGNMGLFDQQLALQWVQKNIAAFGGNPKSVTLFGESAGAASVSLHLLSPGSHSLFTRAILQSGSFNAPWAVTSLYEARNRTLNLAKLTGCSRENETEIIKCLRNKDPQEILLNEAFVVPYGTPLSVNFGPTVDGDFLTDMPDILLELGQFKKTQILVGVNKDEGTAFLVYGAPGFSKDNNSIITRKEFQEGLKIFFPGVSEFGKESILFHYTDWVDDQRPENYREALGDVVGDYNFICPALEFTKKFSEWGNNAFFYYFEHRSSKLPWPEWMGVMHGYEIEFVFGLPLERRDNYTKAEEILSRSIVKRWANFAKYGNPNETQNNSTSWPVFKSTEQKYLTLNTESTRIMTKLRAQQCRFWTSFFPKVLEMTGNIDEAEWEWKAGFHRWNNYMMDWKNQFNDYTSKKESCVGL", "experiment": "Inhibition of BChE (unknown origin)"}},
  "note": "Calls of active or inactive are those of the source. The rule behind the calls is not given here.",
  "data": [
    {"smiles": "CCN(C)C(=O)Oc1cccc([C@H](C)N(C)C)c1", "values": [
      {"measurement": "Activity", "setting": "Mus musculus [1]", "value": "Active"},
      {"measurement": "Activity", "setting": "[2]", "value": 4.73, "unit": "%"},
      {"measurement": "Activity", "setting": "Mus musculus [3]", "value": "Active"},
      {"measurement": "Activity", "setting": "Mus musculus [4]", "value": "Active"},
      {"measurement": "Activity", "setting": "Mus musculus [5]", "value": "Active"},
      {"measurement": "Activity", "setting": "Mus musculus [6]", "value": "Active"}
    ]},
    {"smiles": "COc1cc(/C=C/C(=O)NCC(=O)NCCc2c[nH]c3ccccc23)ccc1O", "values": [
      {"measurement": "IC50", "setting": "Acetylcholinesterase", "value": 0.96, "unit": "µM"},
      {"measurement": "IC50", "setting": "Cholinesterase", "value": 1.23, "unit": "µM"}
    ]}
  ]
}
